Reference: ChEMBL document CHEMBL1201862, “PubChem BioAssay data set” (2004)
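Dose response: 5 concentrations. Exposure: 48 h. Format: 96-well plates. Endpoint: linear interpolation; highest concentration if not reached. GI50: concentration for 50% inhibition of growth.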 Calls of active or inactive are those of the source. Rule as the data show it: active = GI50 up to about 1.1 µM and inactive = higher.

How the values were obtained:
Test in all cases: NCI anticancer screen, dose series, 48 h
[1] = test system: SNB-19
[2] = test system: CAKI-1
[3] = test system: Hs-578T
[4] = test system: Malme-3M
[5] = test system: 786-0
[6] = test system: U-251
[7] = test system: NCI-H522
[8] = test system: HL-60
[9] = test system: IGROV-1
[10] = test system: KM12
[11] = test system: SF-539
[12] = test system: HCC 2998
[13] = test system: LOX IMVI
[14] = test system: ACHN
[15] = test system: NCI/ADR-RES
[16] = test system: BT-549
[17] = test system: A498
[18] = test system: RXF 393
[19] = test system: MDA-MB-435
[20] = test system: UO-31

Measured: GI50

O=c1[nH]c2nccn2c2c1SCCN2
inactive: [1] > 100 µM | [2] > 100 µM | [3] > 100 µM | [4] > 100 µM | [5] > 100 µM | [6] > 100 µM | [7] > 100 µM | [8] > 100 µM | [9] > 100 µM | [10] > 100 µM | [11] > 100 µM | [12] > 100 µM | [13] > 100 µM | [14] > 100 µM | [15] > 100 µM | [16] > 100 µM | [17] > 100 µM | [18] > 100 µM | [19] > 100 µM

O=c1[nH]nc(-c2ccccc2)n1/N=C\c1ccccc1
inactive: [2] > 100 µM | [3] > 100 µM | [4] > 100 µM | [5] > 100 µM | [6] > 100 µM | [7] > 100 µM | [8] > 100 µM | [10] > 100 µM | [11] > 100 µM | [12] > 100 µM | [20] > 100 µM | [13] > 100 µM | [14] > 100 µM | [15] > 100 µM | [16] > 100 µM | [17] > 100 µM | [18] 13.2 µM | [19] > 100 µM

COCN1C(=O)[C@@H]2C[C@@H](OC/C=C/CBr)CN2C(=O)c2ccccc21
inactive: [1] 21.3 µM | [2] 17.4 µM | [3] 26.5 µM | [4] 15.6 µM | [5] 21.5 µM | [6] 14.5 µM | [7] 5.68 µM | [8] 6.27 µM | [9] 9.23 µM | [10] 22 µM | [11] 17.5 µM | [20] 18.9 µM | [13] 2.04 µM | [14] 19.9 µM | [15] 26.9 µM | [16] 26.7 µM | [17] 26.1 µM | [18] 14 µM | [19] 14.9 µM

Cc1ccc(Nc2nc(C)c(C(=O)CC(=O)C(=O)Nc3c(C)cccc3C(C)(C)C)s2)cc1
inactive: [1] > 100 µM | [2] > 100 µM | [3] 56 µM | [5] 75.9 µM | [6] 71.8 µM | [7] > 100 µM | [8] > 100 µM | [9] > 100 µM | [10] > 100 µM | [11] > 100 µM | [12] > 100 µM | [20] > 100 µM | [13] > 100 µM | [14] > 100 µM | [15] > 100 µM | [16] > 100 µM | [17] > 100 µM | [18] > 100 µM | [19] > 100 µM
